Measurements reported in paper PMC3222680 (PLoS ONE, 2011).

Tests used:
αWT β-αV25′A GlyR = target: T1, αWT β-αV25′A GlyR (Homo sapiens, UniProt P23415+P48167, A275I/A296P/F268Y/G272Q/L286I/M270L/M271I/P292M/P300G/S295A/T277S/V266M/V273M/V282I/V305A); format: cell-based
T1 construct: The α R218-Q219 and β R242-Q243 are also the joining sites for chimeras constructed between the ECD and TMD; expressed in transfected cells; host or cells: HEK293 (ATCC)
T1 sequence (P23415 29-449 isoform P23415-2): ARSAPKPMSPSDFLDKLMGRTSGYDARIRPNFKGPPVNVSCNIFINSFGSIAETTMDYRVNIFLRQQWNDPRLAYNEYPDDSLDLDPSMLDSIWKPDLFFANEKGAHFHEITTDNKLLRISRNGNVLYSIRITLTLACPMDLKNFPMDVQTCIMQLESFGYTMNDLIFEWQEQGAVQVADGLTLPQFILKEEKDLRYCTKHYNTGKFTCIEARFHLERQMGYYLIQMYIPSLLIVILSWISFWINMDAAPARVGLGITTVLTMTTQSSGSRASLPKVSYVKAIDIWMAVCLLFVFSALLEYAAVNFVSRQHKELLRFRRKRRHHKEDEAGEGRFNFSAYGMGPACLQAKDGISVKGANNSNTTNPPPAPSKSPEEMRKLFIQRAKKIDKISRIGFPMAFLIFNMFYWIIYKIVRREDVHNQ
T1 sequence (P48167+P23415 with tags, fused parts or gaps P48167:V266M/P48167:F268Y/P48167:M270L/P48167:M271I/P48167:G272Q/P48167:V273M/P48167:A275I/P48167:T277S/P48167:V282I/P48167:L286I/P48167:P292M/P48167:S295A/P48167:A296P/P48167:P300G/P23415:V305A): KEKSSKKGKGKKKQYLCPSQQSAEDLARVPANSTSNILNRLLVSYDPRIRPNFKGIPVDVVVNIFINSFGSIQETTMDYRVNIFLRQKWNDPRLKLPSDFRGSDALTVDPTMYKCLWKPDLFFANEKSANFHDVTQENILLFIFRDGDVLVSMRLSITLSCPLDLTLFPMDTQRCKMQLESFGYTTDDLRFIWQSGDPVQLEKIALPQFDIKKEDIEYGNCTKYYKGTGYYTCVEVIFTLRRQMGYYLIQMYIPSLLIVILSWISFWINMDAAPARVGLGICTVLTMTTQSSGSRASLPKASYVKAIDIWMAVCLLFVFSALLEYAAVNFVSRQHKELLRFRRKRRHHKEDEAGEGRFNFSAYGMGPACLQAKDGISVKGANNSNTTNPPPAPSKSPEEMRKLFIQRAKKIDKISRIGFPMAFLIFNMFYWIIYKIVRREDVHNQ
Method: (§1) The human GlyR α1 and β subunit cDNAs were subcloned into the pcDNA3.1zeo+ (Invitrogen) or pGEMHE [44] plasmid vectors for expression in HEK293 cells or Xenopus oocytes, respectively. Site-directed mutagenesis and chimera construction were performed using the QuickChange (Stratagene, La Jolla, CA, USA) mutagenesis and multiple-template-based sequential PCR protocols, respectively.
(§2) For the β-α chimeras used for determining the effect of hyperekplexia-mimicking mutations on α1 β GlyR channel function, the Thr at the M2 6′ position was replaced by a Cys. […] Through such a modification, picrotoxin resistance was used to distinguish the heteromeric α1 β-α GlyR from the homomeric α1 GlyR when the α1 and β-α subunits were co-expressed.
(§3) The effects of the hyperekplexia-mimicking mutations, K24′A, V25′A and Y27′A, were examined on GlyRs expressed in HEK293 cells (ATCC). Details of the HEK293 cell culture, GlyR expression and electrophysiological recording of the HEK293 cells are described elsewhere. Briefly, HEK293 cells were maintained in DMEM supplemented with 10% fetal bovine serum. Cells were transfected using a calcium phosphate precipitation protocol. When co-transfecting the α1 together with the β or any other chimera subunits, their respective cDNAs were combined in a ratio of 1∶10. In addition, the pEGFP-N1 (Clontech) was co-transfected to facilitate identifying the transfected cells. […] Cells were treated with external Ringer's solution and internal CsCl solution [30]. Cells were voltage-clamped at −40 mV. When the heteromeric GlyRs were expressed, the picrotoxin sensitivity was tested to confirm that the majority of receptors are heteromers, [30].
(§4) Results are expressed as mean±standard error of the mean of three or more independent experiments. […] Statistical significance was determined using the Student's t-test.

αWT β-αY27′A GlyR = target: T2, αWT β-αY27′A GlyR (Homo sapiens, UniProt P23415+P48167, A275I/A296P/F268Y/G272Q/L286I/M270L/M271I/P292M/P300G/S295A/T277S/V266M/V273M/V282I/Y307A); format: cell-based
T2 construct: The α R218-Q219 and β R242-Q243 are also the joining sites for chimeras constructed between the ECD and TMD; expressed in transfected cells; host or cells: HEK293 cells (ATCC), pcDNA3.1zeo+
T2 sequence (P23415 29-449 isoform P23415-2): T1 sequence (P23415 29-449 isoform P23415-2)
T2 sequence (P48167+P23415 with tags, fused parts or gaps P48167:V266M/P48167:F268Y/P48167:M270L/P48167:M271I/P48167:G272Q/P48167:V273M/P48167:A275I/P48167:T277S/P48167:V282I/P48167:L286I/P48167:P292M/P48167:S295A/P48167:A296P/P48167:P300G/P23415:Y307A): T1 sequence (P48167+P23415 with tags, fused parts or gaps P48167:V266M/P48167:F268Y/P48167:M270L/P48167:M271I/P48167:G272Q/P48167:V273M/P48167:A275I/P48167:T277S/P48167:V282I/P48167:L286I/P48167:P292M/P48167:S295A/P48167:A296P/P48167:P300G/P23415:V305A) with A301V, Y303A
Method: as §1, §2, §3, §4

αY27′A βWT GlyR = αY27′A βWT GlyR (Homo sapiens, UniProt P23415+P48167, Y307A)
Method: as §1, §3, §4

αY27′A α-βWT GlyR = αY27′A α-βWT GlyR (Homo sapiens, UniProt P23415+P48167, Y307A)
Method: as §1, §3, §4

homomeric α1Y27′A GlyR = homomeric α1Y27′A GlyR (Homo sapiens, UniProt P23415, Y307A); conditions: HEK293
Method: as §1, §3

[1] = αWT β-αV25′A, HEK293, with glycine at EC50 of α1 homomer
[2] = αWT β-αY27′A, HEK293, with glycine at EC50 of α1 homomer
[3] = Hill coefficient of glycine-induced current

Chain of αY27′A α-βWT GlyR (P23415 29-449 isoform P23415-2 Y307A): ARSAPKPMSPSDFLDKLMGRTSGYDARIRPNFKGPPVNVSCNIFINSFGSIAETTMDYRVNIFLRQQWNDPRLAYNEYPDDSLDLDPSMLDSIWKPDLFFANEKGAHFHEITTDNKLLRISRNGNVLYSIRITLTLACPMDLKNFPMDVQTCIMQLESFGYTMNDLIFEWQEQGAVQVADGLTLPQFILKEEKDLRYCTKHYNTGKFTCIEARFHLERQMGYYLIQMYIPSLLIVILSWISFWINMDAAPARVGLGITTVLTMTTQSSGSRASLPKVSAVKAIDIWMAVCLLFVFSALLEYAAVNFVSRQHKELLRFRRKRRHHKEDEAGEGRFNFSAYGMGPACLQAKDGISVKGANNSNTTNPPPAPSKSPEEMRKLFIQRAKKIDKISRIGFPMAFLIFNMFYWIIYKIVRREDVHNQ
Chain of αY27′A α-βWT GlyR (P23415+P48167 fused with the stated changes): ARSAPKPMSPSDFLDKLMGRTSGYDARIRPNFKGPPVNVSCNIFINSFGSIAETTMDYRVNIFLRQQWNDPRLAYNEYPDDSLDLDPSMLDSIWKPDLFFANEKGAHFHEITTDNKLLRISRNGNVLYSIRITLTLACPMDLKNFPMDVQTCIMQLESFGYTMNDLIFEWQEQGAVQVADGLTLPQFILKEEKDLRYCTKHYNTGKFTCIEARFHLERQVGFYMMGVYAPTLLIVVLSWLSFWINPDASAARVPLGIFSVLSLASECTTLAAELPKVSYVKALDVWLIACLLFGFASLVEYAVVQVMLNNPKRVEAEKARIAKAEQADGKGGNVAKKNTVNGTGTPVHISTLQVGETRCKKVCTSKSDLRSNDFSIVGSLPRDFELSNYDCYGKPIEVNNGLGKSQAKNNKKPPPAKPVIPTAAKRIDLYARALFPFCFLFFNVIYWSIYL
Chain of αY27′A βWT GlyR (P23415 29-449 isoform P23415-2 Y307A limits assumed): as the sequence (P23415 29-449 isoform P23415-2 Y307A) above
Chain of αY27′A βWT GlyR (P48167 23-497): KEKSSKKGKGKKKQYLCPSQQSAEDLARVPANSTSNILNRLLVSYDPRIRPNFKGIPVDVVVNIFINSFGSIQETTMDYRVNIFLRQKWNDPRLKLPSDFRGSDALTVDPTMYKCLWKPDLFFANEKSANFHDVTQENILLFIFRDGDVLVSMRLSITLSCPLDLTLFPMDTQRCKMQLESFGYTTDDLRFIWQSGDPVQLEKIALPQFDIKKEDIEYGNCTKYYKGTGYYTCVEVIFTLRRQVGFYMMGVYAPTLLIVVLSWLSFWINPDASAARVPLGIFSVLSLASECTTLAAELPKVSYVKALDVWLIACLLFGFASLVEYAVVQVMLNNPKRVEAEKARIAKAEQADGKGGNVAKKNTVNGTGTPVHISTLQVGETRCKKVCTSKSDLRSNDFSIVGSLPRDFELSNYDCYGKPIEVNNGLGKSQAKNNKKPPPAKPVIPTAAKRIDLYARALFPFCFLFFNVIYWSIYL
Chain of homomeric α1Y27′A GlyR (P23415 29-457 Y307A): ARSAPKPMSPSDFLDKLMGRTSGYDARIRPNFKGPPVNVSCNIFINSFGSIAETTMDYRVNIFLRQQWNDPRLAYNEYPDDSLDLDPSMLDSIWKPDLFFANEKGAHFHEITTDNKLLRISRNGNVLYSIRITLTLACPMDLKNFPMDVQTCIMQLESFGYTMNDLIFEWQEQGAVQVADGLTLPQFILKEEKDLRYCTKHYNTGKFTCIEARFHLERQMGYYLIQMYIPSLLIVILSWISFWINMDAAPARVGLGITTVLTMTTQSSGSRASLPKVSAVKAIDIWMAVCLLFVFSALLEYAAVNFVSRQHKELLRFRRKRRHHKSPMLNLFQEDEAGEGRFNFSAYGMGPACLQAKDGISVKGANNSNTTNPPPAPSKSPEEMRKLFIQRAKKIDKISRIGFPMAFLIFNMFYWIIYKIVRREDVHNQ

With picrotoxin [PTX] the “10uM PTX inhibition (%)” value (αWT β-αV25′A GlyR; [1]) was 8.8±1.6%, the “100uM PTX inhibition (%)” value (αWT β-αV25′A GlyR; [1]) was 31±1% and the “10uM PTX inhibition (%)” value (αWT β-αY27′A GlyR; [2]) was 22±7%. The “100uM PTX inhibition (%)” value (αWT β-αY27′A GlyR; [2]) was 48±4%.
In the case of `NCC(=O)O` [glycine], the nH (αY27′A βWT GlyR; [3]) is reported as 1.1±0.0, the Imax (αY27′A βWT GlyR; glycine-induced current) is reported as 2.0±1.0 nA and the nH (αY27′A α-βWT GlyR; [3]) is reported as 0.78±0.03. It also gave an Imax (αY27′A α-βWT GlyR; glycine-induced current) of 5.7±1.3 nA, an Imax (αWT β-αV25′A GlyR) of 11.0±1.1 nA and a nH (αWT β-αV25′A GlyR) of 2.2±0.3. For the same molecule, the Imax (αWT β-αY27′A GlyR) was 6.5±1.6 nA, the nH (αWT β-αY27′A GlyR) was 2.1±0.6 and the glycine-induced current (homomeric α1Y27′A GlyR) was “no glycine-induced current was detected”.
